Source: patent US10463764B2, “3D tissue-engineered bone marrow for personalized therapy and drug development” (Washington University, priority 2014, dated 2019)

Experiments:
[1] = tested on: MM1s cells; assay: Effect of ECM component fibronectin on growth of MM cells inside 3DTEBM, by flow cytometry; format: cell-based; settings: 100 ng/ml, day 3
Protocol: For flow cytometry analysis, an internal control (MM1s-calcein violet) was added and a minimum of 5,000 events were acquired using BD FACS Aria (BD Biosciences) and DiVa v6.1.2 software. The data was analyzed using FlowJo program v10 (Ashland, Oreg.). MM cells or CD138^+ cells were identified by gating cells with a high GFP/DiO signal (excitement, 488 nm; filter, 530/30 nm); Hs5 stroma or CD138-stromal cells were identified by gating cells with a high DiD signal (excitement, 638 nm; filter, 660/20 nm); HUVECs were identified by gating cells with a high DiI signal (excitement, 488 nm; filter, 585/15 nm); and MM1s cells control were identified by gating cells with a high UV signal (excitement, 355 nm; filter, 450/50 nm). A 3DTEBM was digested with type I collagenase at 25 mg/ml for 2 h at 37° C. Classic bi-dimensional (2D) cultures were washed with PBS and removed by pipetting. The effect of cell density (5×10^3-50×10^3 cells/well) of MM1s-GFP, Hs5 stroma-DiD, CD138− stromal cells-DiD, and HUVECs-DiI on growth rate in mono-cultures at day 3 inside 3DTEBM was measured by flow cytometry. […]

[2] = tested on: MM1s cells; assay: Drug survival of MM1s cells in mono- or multi-culture in classic 2D cultures and 3DTEBM, by flow cytometry; format: cell-based; settings: Homo sapiens, MM1.S, 24 h
Protocol: MM1s-GFP cells (30×10^3 cells/well) were cultured in mono-culture or multi-culture conditions [CD138^− stromal cells-DiD (10×10^3 cells/well), HUVECs-DiD (10×10^3 cells/well), and fibronectin 100 ng/ml)] in 3DTEBM and classic 2D cultures. After 2 h gelification of 3DTEBM or adhesion in 2D cultures (cells were culture in 50 μl), 50 ul of RPMI completed media was added on top of 3DTEBM. Then, 50 μl of bortezomib (0-30 nM), carfilzomib (0, 10 nM), or melphalan (0, 1 μM) solutions were added on top of 2D cultures and 3DTEBM for 24 h. Cell proliferation assay was assessed by flow cytometry as previously described. Briefly, drug-media was removed, 3DTEBM were digested and cells of 2D cultures detached by pipetting. Effect of drug treatment in MM1s-GFP cells was measured and normalized to non-treated conditions.
Finally, the effect of increasing concentrations of bortezomib on the survival of MM1s cells grown in mono-culture or multi-culture in 3DTEBM and 2D cultures was measured.

Row | Compound | increase of growth of MM cells in 3DTEBM [1] | IC50 ([2]; 3DTEBM mono-culture) | IC50 ([2]; 3DTEBM multi-culture (CD138- stromal cells, HUVECs, fibronectin)) | IC50 ([2]; classic 2D mono-culture) | IC50 ([2]; classic 2D multi-culture (CD138- stromal cells, HUVECs, fibronectin))
1 | fibronectin | about 25% | – | – | – | –
2 | CC(C)C[C@H](NC(=O)[C@H](Cc1ccccc1)NC(=O)c1cnccn1)B(O)O [bortezomib] | – | 0.015 to 0.02 µM | ~0.025 µM | ~0.005 µM | ~0.007 µM
